According to ChEMBL document CHEMBL3272024, “(Acylaryloxy)acetic acid diuretics. 1. (2-Alkyl- and 2,2-dialkyl-1-oxo-5-indanyloxy)acetic acids” (J Med Chem, 1977):

Key:
Pan troglodytes [1] = experiment: Natriuretic activity in chimpanzee assessed as change sodium level in urine measured per min at 5 mg/kg, po; assay type: functional
Pan troglodytes [2] = experiment: Ratio of change in urate excretion to change in inulin excretion in chimpanzee in urine at 5 mg/kg, po; assay type: functional
Rattus norvegicus = experiment: Natriuretic activity in po dosed Charles River rat assessed as sodium level in urine per cage collected 0.5 hrs interval relative to 2-(3,6,7-trimethyl-1-oxo-2,3-dihydro-1H-inden-5-yloxy)acetic acid; assay type: functional
[3] = Acute toxicity in iv dosed mouse; assay type: organism-based; conditions: in vivo
Canis familiaris [4] = experiment: Diuretic activity in dog assessed as urine volume collected for 2 hrs at 5 mg/kg, iv over a period of 5 mins (reference value: 1 to 2 mL); assay type: functional, Canis lupus familiaris
Canis familiaris [5] = experiment: Diuretic activity in dog assessed as sodium level in urine collected for 2 hrs at 5 mg/kg, iv over a period of 5 mins (reference value: 5 to 30 microEq); assay type: functional, Canis lupus familiaris
Canis familiaris [6] = experiment: Diuretic activity in dog assessed as chloride level in urine collected for 2 hrs at 5 mg/kg, iv over a period of 5 mins (reference value: 1 to 10 microEq); assay type: functional, Canis lupus familiaris
Canis familiaris [7] = experiment: Diuretic activity in dog assessed as potassium level in urine collected for 2 hrs at 5 mg/kg, iv over a period of 5 mins (reference value: 5 to 30 microEq); assay type: functional, Canis lupus familiaris

| Structure (SMILES) | Activity (Pan troglodytes [1]) [uEq] | Ratio (Pan troglodytes [2]) | further results |
| --- | --- | --- | --- |
| CCC1(C2CCCC2)Cc2cc(OCC(=O)O)c(Cl)c(Cl)c2C1=O (configuration not stated) | 231 | 0.12 |  |
| CC1(Cc2ccccc2)Cc2cc(OCC(=O)O)c(Cl)c(Cl)c2C1=O (configuration not stated) | 251 | 0.18 |  |
| CC1Cc2cc(OCC(=O)O)c(Cl)c(Cl)c2C1=O (configuration not stated) |  |  | Ratio (Rattus norvegicus): 1; LD50 [3]: 354 mg/kg |
| CCC1Cc2cc(OCC(=O)O)c(Cl)c(Cl)c2C1=O (configuration not stated) | 427 | 0.09 | Ratio (Rattus norvegicus): 2.8; LD50 [3]: 245 mg/kg |
| CCCC1Cc2cc(OCC(=O)O)c(Cl)c(Cl)c2C1=O (configuration not stated) |  | 0.19 |  |
| CC(C)C1Cc2cc(OCC(=O)O)c(Cl)c(Cl)c2C1=O (configuration not stated) | 649 | 0.18 | Ratio (Rattus norvegicus): 3.2; LD50 [3]: 505 mg/kg; Activity (Canis familiaris [4]): 4 mL; Activity (Canis familiaris [5]): 281 uEq; Activity (Canis familiaris [6]): 330 uEq; Activity (Canis familiaris [7]): 44 uEq |
| Cc1c(OCC(=O)O)cc2c(c1Cl)C(=O)C(C(C)C)C2 (configuration not stated) | 185 | 0.07 | Activity (Canis familiaris [4]): 3 mL; Activity (Canis familiaris [5]): 218 uEq; Activity (Canis familiaris [6]): 204 uEq; Activity (Canis familiaris [7]): 50 uEq |
| Cc1c(OCC(=O)O)cc2c(c1C)C(=O)C(C(C)C)C2 (configuration not stated) | 153 | 0.15 | Activity (Canis familiaris [4]): 2 mL; Activity (Canis familiaris [5]): 154 uEq; Activity (Canis familiaris [6]): 100 uEq; Activity (Canis familiaris [7]): 15 uEq |
| CCCCC1Cc2cc(OCC(=O)O)c(Cl)c(Cl)c2C1=O (configuration not stated) | 126 | 0.11 |  |
| CC(C)(C)C1Cc2cc(OCC(=O)O)c(Cl)c(Cl)c2C1=O (configuration not stated) | 106 | 0 |  |
| Cc1c(OCC(=O)O)cc2c(c1Cl)C(=O)C(C1CCCC1)C2 (configuration not stated) | 141 | 0.14 |  |
| Cc1c(OCC(=O)O)cc2c(c1C)C(=O)C(C1CCCC1)C2 (configuration not stated) | 0 | 0.43 |  |
| O=C(O)COc1cc2c(c(Cl)c1Cl)C(=O)C(C1CCCCC1)C2 (configuration not stated) | 310 | 0.21 |  |
| O=C(O)COc1cc2c(c(Cl)c1Cl)C(=O)C1CCCCC21 (configuration not stated) | 85 | 0.2 |  |
| CC1C(=O)c2c(cc(OCC(=O)O)c(Cl)c2Cl)C1c1ccccc1 (configuration not stated) | 64 | 0.12 |  |
| CCC1C(=O)c2c(cc(OCC(=O)O)c(Cl)c2Cl)C1c1ccccc1 (configuration not stated) | 223 | 0.28 |  |
| CC(C)C1C(=O)c2c(cc(OCC(=O)O)c(Cl)c2Cl)C1c1ccccc1 (configuration not stated) | 240 | 0.25 |  |
| O=C(O)COc1cc2c(c(Cl)c1Cl)C(=O)C(C1CCCC1)C2c1ccccc1 (configuration not stated) | 22 | 0.25 |  |
| CCC1C(=O)c2c(cc(OCC(=O)O)c(Cl)c2Cl)C1c1ccccn1 (configuration not stated) | 0 | 0.08 |  |
| CCC1C(=O)c2c(cc(OCC(=O)O)c(Cl)c2Cl)C1c1cccnc1 (configuration not stated) | 25 | 0.07 |  |
| CC1(C)Cc2cc(OCC(=O)O)c(Cl)c(Cl)c2C1=O | 535 | 0.04 | Ratio (Rattus norvegicus): 3.9; LD50 [3]: 268 mg/kg |
| CCC1(C)Cc2cc(OCC(=O)O)c(Cl)c(Cl)c2C1=O (configuration not stated) | 520 | 0.07 | Ratio (Rattus norvegicus): 15; LD50 [3]: 239 mg/kg; Activity (Canis familiaris [4]): 4 mL; Activity (Canis familiaris [5]): 360 uEq; Activity (Canis familiaris [6]): 450 uEq; Activity (Canis familiaris [7]): 62 uEq |
| CCCC1(CC)Cc2cc(OCC(=O)O)c(Cl)c(Cl)c2C1=O (configuration not stated) | 341 | 0.05 |  |
| Cc1c(OCC(=O)O)cc2c(c1Cl)C(=O)C(C)(C1CCCC1)C2 (configuration not stated) | 86 | 0.24 |  |

| Structure (SMILES) | Activity (Pan troglodytes [1]) [uEq] | Ratio (Pan troglodytes [2]) | further results |
| --- | --- | --- | --- |
| C=CCC1(C)Cc2cc(OCC(=O)O)c(Cl)c(Cl)c2C1=O (configuration not stated) | 81 | 0.01 | Activity (Canis familiaris [4]): 4 mL; Activity (Canis familiaris [5]): 175 uEq; Activity (Canis familiaris [6]): 171 uEq; Activity (Canis familiaris [7]): 37 uEq |
| O=C(O)COc1cc2c(c(Cl)c1Cl)C(=O)C1(CCCCC1)C2 | 489 | 0.05 |  |
| CC12CCCCC1c1cc(OCC(=O)O)c(Cl)c(Cl)c1C2=O (configuration not stated) | 406 | 0.39 |  |
| CC1(C)C(=O)c2c(cc(OCC(=O)O)c(Cl)c2Cl)C1c1ccccc1 (configuration not stated) | 22 | 0.1 |  |
| CCC1(C)C(=O)c2c(cc(OCC(=O)O)c(Cl)c2Cl)C1c1ccccc1 (configuration not stated) | 0 | 0 |  |
| CCC1Cc2cc(OCc3nnn[nH]3)c(Cl)c(Cl)c2C1=O (configuration not stated) | 28 | 0.11 |  |
| CC(C)C1Cc2cc(OCc3nnn[nH]3)c(Cl)c(Cl)c2C1=O (configuration not stated) | 42 | 0.07 |  |
| CCC1C(=O)c2c(cc(OCc3nnn[nH]3)c(Cl)c2Cl)C1c1ccccc1 (configuration not stated) | 5 | 0.06 |  |
| O=C1c2c(cc(OCc3nnn[nH]3)c(Cl)c2Cl)CC1C1CCCC1 (configuration not stated) | 56 | 0.18 |  |
| CC(C)C1(C)Cc2cc(OCc3nnn[nH]3)c(Cl)c(Cl)c2C1=O (configuration not stated) | 174 | 0.17 |  |
| O=C1c2c(cc(OCc3nnn[nH]3)c(Cl)c2Cl)CC12CCCCC2 | 0 | 0.02 |  |
| CC1c2cc(OCc3nnn[nH]3)c(Cl)c(Cl)c2C(=O)C1C1CCCC1 (configuration not stated) | 19 | 0.07 |  |
| O=C1c2c(cc(OCc3nnn[nH]3)c(Cl)c2Cl)CC12CCCC2 | 0 | 0.05 |  |
| O=C(O)COc1cc2c(c(Cl)c1Cl)C(=O)C(CC1CCCC1)C2 (configuration not stated) | 105 | 0.05 |  |
| O=C(O)COc1cc2c(c(Cl)c1Cl)C(=O)C1(CCCC1)C2 | 624 | 0.11 | Activity (Canis familiaris [4]): 5 mL; Activity (Canis familiaris [5]): 330 uEq; Activity (Canis familiaris [6]): 254 uEq; Activity (Canis familiaris [7]): 47 uEq |
| CC(C)C1(C)Cc2cc(OCC(=O)O)c(Cl)c(Cl)c2C1=O (racemic) |  |  | Activity (Pan troglodytes [1]; 5 mg/kg): 506 uEq; Ratio (Rattus norvegicus): 53; LD50 [3]: 244 mg/kg; Ratio (Pan troglodytes [2]; 5 mg/kg): 0.03; Activity (Canis familiaris [4]): 2 mL; Activity (Canis familiaris [5]): 185 uEq; Activity (Canis familiaris [6]): 218 uEq; Activity (Canis familiaris [7]): 35 uEq |
| CC1(C2CCCC2)Cc2cc(OCC(=O)O)c(Cl)c(Cl)c2C1=O (racemic) |  |  | Activity (Pan troglodytes [1]; 5 mg/kg): 425 uEq; Ratio (Rattus norvegicus): 5.4; LD50 [3]: 213 mg/kg; Ratio (Pan troglodytes [2]; 5 mg/kg): 0.2; Activity (Canis familiaris [4]): 4 mL; Activity (Canis familiaris [5]): 454 uEq; Activity (Canis familiaris [6]): 478 uEq; Activity (Canis familiaris [7]): 48 uEq |
| CC(C)C1(C)Cc2cc(OCC(=O)O)c(Cl)c(Cl)c2C1=O (single isomer, unassigned; (+)) |  |  | Activity (Pan troglodytes [1]; 5 mg/kg): 1593 uEq; Ratio (Pan troglodytes [2]; 5 mg/kg): 0.41 |
| O=C(O)COc1cc2c(c(Cl)c1Cl)C(=O)C(C1CCCC1)C2 (single isomer, unassigned; (+)) |  |  | Activity (Pan troglodytes [1]; 5 mg/kg): 300 uEq; Ratio (Pan troglodytes [2]; 5 mg/kg): 0.26 |
| O=C(O)COc1cc2c(c(Cl)c1Cl)C(=O)C(C1CCCC1)C2 (single isomer, unassigned; (-)) |  |  | Activity (Pan troglodytes [1]; 5 mg/kg): 292 uEq; Ratio (Pan troglodytes [2]; 5 mg/kg): 0.1 |
| CC1(C2CCCC2)Cc2cc(OCC(=O)O)c(Cl)c(Cl)c2C1=O (single isomer, unassigned; enantiomer 1) |  |  | Activity (Pan troglodytes [1]; 5 mg/kg): 325 uEq; Ratio (Pan troglodytes [2]; 5 mg/kg): 0.1 |
| CC(C)C1(C)Cc2cc(OCC(=O)O)c(Cl)c(Cl)c2C1=O (single isomer, unassigned; enantiomer 2) |  |  | Activity (Pan troglodytes [1]; 5 mg/kg): 992 uEq; Ratio (Pan troglodytes [2]; 5 mg/kg): 0.06 |
| CC1(C2CCCC2)Cc2cc(OCC(=O)O)c(Cl)c(Cl)c2C1=O (single isomer, unassigned; enantiomer 2) |  |  | Activity (Pan troglodytes [1]; 5 mg/kg): 268 uEq; Ratio (Pan troglodytes [2]; 5 mg/kg): 0.17 |
| NS(=O)(=O)c1cc2c(cc1Cl)NCNS2(=O)=O [HYDROCHLOROTHIAZIDE] | 144 |  | Activity (Canis familiaris [4]): 3 mL; Activity (Canis familiaris [5]): 166 uEq; Activity (Canis familiaris [6]): 156 uEq; Activity (Canis familiaris [7]): 33 uEq |
